Test results taken from PubChem BioAssay (NCI).
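A five-concentration, 48-hour dose response in 96-well plates underlies each endpoint, interpolated linearly between surrounding concentrations. GI50 marks 50% less growth. At the TGI there is no net growth.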

Experiments:
Test in all cases: NCI anticancer screen, dose series, 48 h
[1] = tested on: SF-539 CNS
[2] = tested on: HOP-62 NSCLC
[3] = tested on: K-562 leukemia
[4] = tested on: KM12 colon
[5] = tested on: SR leukemia
[6] = tested on: MCF7 breast
[7] = tested on: CAKI-1 renal
[8] = tested on: SK-MEL-2 melanoma
[9] = tested on: SF-268 CNS
[10] = tested on: HCC-2998 colon
[11] = tested on: SK-MEL-5 melanoma
[12] = tested on: U251 CNS
[13] = tested on: HCT-15 colon
[14] = tested on: SW-620 colon
[15] = tested on: A549 NSCLC
[16] = tested on: NCI-H23 lung
[17] = tested on: SF-295 CNS
[18] = tested on: NCI-H522 lung
[19] = tested on: NCI-H460 lung
[20] = tested on: NCI/ADR-RES ovarian
[21] = tested on: BT-549 breast
[22] = tested on: MALME-3M melanoma
[23] = tested on: UO-31 renal
[24] = tested on: A498 renal
[25] = tested on: HOP-92 NSCLC
[26] = tested on: OVCAR-4 ovarian
[27] = tested on: DU-145 prostate
[28] = tested on: SNB-75 CNS
[29] = tested on: T-47D breast

## CCCCCCCCCCCCOC1C(C(COC2OC(C(O)CO)C3OC(C)(C)OC23)OC(=O)Nc2ccccc2)OC2OC(C)(C)OC21 (configuration not stated)
[1]
  GI50: 9.14 µM
  TGI: 22.3 µM
[2]
  GI50: 9.7 µM
  TGI: 22.2 µM
[3]
  GI50: 3.44 µM
  TGI: 16.9 µM
[4]
  GI50: 2.99 µM
  TGI: 8.76 µM
[5]
  GI50: < 0.0212 µM
[6]
  GI50: 3.85 µM
  TGI: 13.6 µM
[7]
  GI50: 12 µM
  TGI: 25.9 µM
[8]
  GI50: 16.3 µM
  TGI: 32.4 µM
[9]
  GI50: 4.47 µM
  TGI: 16.6 µM
[10]
  GI50: 5.39 µM
  TGI: 10.4 µM
[11]
  GI50: 8.55 µM
  TGI: 25.6 µM
[12]
  GI50: 5.44 µM
  TGI: 18 µM
[13]
  GI50: 4.5 µM
  TGI: 16.1 µM
[14]
  GI50: 9.21 µM
  TGI: 27.2 µM
[15]
  GI50: 6.08 µM
  TGI: 20.6 µM
[16]
  GI50: 7.39 µM
  TGI: 19.6 µM
[17]
  GI50: 5.47 µM
  TGI: 17.7 µM
[18]
  GI50: 9.89 µM
  TGI: 29.2 µM
[19]
  GI50: 3.88 µM
  TGI: 13.3 µM
[20]
  GI50: 6.04 µM
  TGI: 18.4 µM
[21]
  GI50: 10.5 µM
  TGI: 23.8 µM
[22]
  GI50: 9.2 µM
  TGI: 23.2 µM
[23]
  GI50: 9.01 µM
  TGI: 23.7 µM
[24]
  GI50: 12.4 µM
  TGI: 25.1 µM
[25]
  GI50: 7.29 µM
  TGI: 20.1 µM
[26]
  GI50: 5.85 µM
  TGI: 17.8 µM
[27]
  GI50: 10 µM
  TGI: 22.8 µM
[28]
  GI50: 5.2 µM
  TGI: 16.9 µM
[29]
  GI50: 5.02 µM
  TGI: 16.6 µM
